Reference: ChEMBL document CHEMBL4411303, “Synthesis of tetrazole derivatives bearing pyrrolidine scaffold and evaluation of their antifungal activity against Candida albicans” (Eur J Med Chem, 2019)
The source made the active and inactive calls. The calls are words filed in the database; no cut-off is given here.

Assays:
Candida albicans [1] = assay: Antifungal activity against Candida albicans ATCC 90028 assessed as planktonic growth inhibition at 2.77 uM after 48 hrs by M27-A3 protocol based method relative to control; assay type: functional; settings: ATCC 90028, 48 h, read-out: GI
Candida albicans [2] = assay: Antifungal activity against Candida albicans ATCC 90028 assessed as planktonic growth inhibition at 0.09 uM after 48 hrs by M27-A3 protocol based method relative to control; assay type: functional; settings: ATCC 90028, 48 h, read-out: GI
Candida albicans [3] = assay: Antifungal activity against Candida albicans ATCC 90028 assessed as planktonic growth inhibition at 5.53 uM after 48 hrs by M27-A3 protocol based method relative to control; assay type: functional; settings: ATCC 90028, 48 h, read-out: GI
Candida albicans [4] = assay: Antifungal activity against Candida albicans ATCC 90028 assessed as planktonic growth inhibition at 1.38 uM after 48 hrs by M27-A3 protocol based method relative to control; assay type: functional; settings: ATCC 90028, 48 h, read-out: GI
Candida albicans [5] = assay: Antifungal activity against Candida albicans ATCC 90028 assessed as planktonic growth inhibition at 0.35 uM after 48 hrs by M27-A3 protocol based method relative to control; assay type: functional; settings: ATCC 90028, 48 h, read-out: GI
Candida albicans [6] = assay: Antifungal activity against Candida albicans ATCC 90028 assessed as planktonic growth inhibition at 11.07 uM after 48 hrs by M27-A3 protocol based method relative to control; assay type: functional; settings: ATCC 90028, 48 h, read-out: GI
Candida albicans [7] = assay: Antifungal activity against Candida albicans ATCC 90028 assessed as planktonic growth inhibition at 22.13 uM after 48 hrs by M27-A3 protocol based method relative to control; assay type: functional; settings: ATCC 90028, 48 h, read-out: GI
Candida albicans [8] = assay: Antifungal activity against Candida albicans ATCC 90028 assessed as planktonic growth inhibition at 0.17 uM after 48 hrs by M27-A3 protocol based method relative to control; assay type: functional; settings: ATCC 90028, 48 h, read-out: GI
Candida albicans [9] = assay: Antifungal activity against Candida albicans ATCC 90028 assessed as planktonic growth inhibition at 44.26 uM after 48 hrs by M27-A3 protocol based method relative to control; assay type: functional; settings: ATCC 90028, 48 h, read-out: GI
Candida albicans [10] = assay: Antifungal activity against Candida albicans ATCC 90028 assessed as planktonic growth inhibition at 0.69 uM after 48 hrs by M27-A3 protocol based method relative to control; assay type: functional; settings: ATCC 90028, 48 h, read-out: GI
Candida albicans [11] = assay: Fungicidal activity against Candida albicans ATCC 90028 assessed as log reduction in fungal load incubated for 48 hrs followed by replating on sabouraud dextrose agar plate and measured after 48 hrs; assay type: functional
Candida albicans [12] = assay: Antifungal activity against Candida albicans ATCC 90028 infected in Galleria mellonella larvae assessed as inhibition of fungus filamentation at 10 uL measured at 24 hrs interval for 144 hrs by HE staining based microscopic analysis; assay type: functional, organism-based
Candida albicans [13] = assay: Antifungal activity against Candida albicans ATCC 90028 assessed as planktonic growth inhibition at 11.38 uM after 48 hrs by M27-A3 protocol based method relative to control; assay type: functional; settings: ATCC 90028, 48 h, read-out: GI
Candida albicans [14] = assay: Antifungal activity against Candida albicans ATCC 90028 assessed as planktonic growth inhibition at 22.76 uM after 48 hrs by M27-A3 protocol based method relative to control; assay type: functional; settings: ATCC 90028, 48 h, read-out: GI
Candida albicans [15] = assay: Antifungal activity against Candida albicans ATCC 90028 assessed as planktonic growth inhibition at 2.85 uM after 48 hrs by M27-A3 protocol based method relative to control; assay type: functional; settings: ATCC 90028, 48 h, read-out: GI
Candida albicans [16] = assay: Antifungal activity against Candida albicans ATCC 90028 assessed as planktonic growth inhibition at 1.42 uM after 48 hrs by M27-A3 protocol based method relative to control; assay type: functional; settings: ATCC 90028, 48 h, read-out: GI
Candida albicans [17] = assay: Antifungal activity against Candida albicans ATCC 90028 assessed as planktonic growth inhibition at 45.53 uM after 48 hrs by M27-A3 protocol based method relative to control; assay type: functional; settings: ATCC 90028, 48 h, read-out: GI
Candida albicans [18] = assay: Cell cycle arrest in Candida albicans ATCC 90028 assessed as accumulation at G0/G1-phase by propidium iodide staining based flow cytometry; assay type: functional, organism-based
Candida albicans [19] = assay: Antifungal activity against Candida albicans ATCC 90028 assessed as planktonic growth inhibition at 0.71 uM after 48 hrs by M27-A3 protocol based method relative to control; assay type: functional; settings: ATCC 90028, 48 h, read-out: GI
Candida albicans [20] = assay: Antifungal activity against Candida albicans ATCC 90028 assessed as planktonic growth inhibition at 0.36 uM after 48 hrs by M27-A3 protocol based method relative to control; assay type: functional; settings: ATCC 90028, 48 h, read-out: GI
Candida albicans [21] = assay: Antifungal activity against Candida albicans ATCC 90028 infected in Galleria mellonella larvae assessed as induction of pathogen entrapping by haemocytes at 10 uL measured at 24 hrs interval for 144 hrs by HE staining based microscopic analysis; assay type: functional, organism-based
Candida albicans [22] = assay: Antifungal activity against Candida albicans ATCC 90028 assessed as planktonic growth inhibition at 0.18 uM after 48 hrs by M27-A3 protocol based method relative to control; assay type: functional; settings: ATCC 90028, 48 h, read-out: GI
Candida albicans [23] = assay: Antifungal activity against Candida albicans ATCC 90028 assessed as planktonic growth inhibition at 5.69 uM after 48 hrs by M27-A3 protocol based method relative to control; assay type: functional; settings: ATCC 90028, 48 h, read-out: GI
Candida albicans [24] = assay: Antibiofilm activity against Candida albicans ATCC 90028 assessed as inhibition of biofilm formation […] after 24 hrs by XTT assay relative to control; assay type: functional, organism-based; settings: ATCC 90028, 24 h
Candida albicans [25] = assay: Antifungal activity against Candida albicans ATCC 90028 assessed as planktonic growth inhibition at 0.27 uM after 48 hrs by M27-A3 protocol based method relative to control; assay type: functional; settings: ATCC 90028, 48 h, read-out: GI
Candida albicans [26] = assay: Antifungal activity against Candida albicans ATCC 90028 assessed as planktonic growth inhibition at 2.49 uM after 48 hrs by M27-A3 protocol based method relative to control; assay type: functional; settings: ATCC 90028, 48 h, read-out: GI
Candida albicans [27] = assay: Antifungal activity against Candida albicans ATCC 90028 assessed as planktonic growth inhibition at 0.62 uM after 48 hrs by M27-A3 protocol based method relative to control; assay type: functional; settings: ATCC 90028, 48 h, read-out: GI
Candida albicans [28] = assay: Antifungal activity against Candida albicans ATCC 90028 assessed as planktonic growth inhibition at 19.88 uM after 48 hrs by M27-A3 protocol based method relative to control; assay type: functional; settings: ATCC 90028, 48 h, read-out: GI
Candida albicans [29] = assay: Antifungal activity against Candida albicans ATCC 90028 assessed as planktonic growth inhibition at 4.97 uM after 48 hrs by M27-A3 protocol based method relative to control; assay type: functional; settings: ATCC 90028, 48 h, read-out: GI
Candida albicans [30] = assay: Antifungal activity against Candida albicans ATCC 90028 assessed as planktonic growth inhibition at 0.16 uM after 48 hrs by M27-A3 protocol based method relative to control; assay type: functional; settings: ATCC 90028, 48 h, read-out: GI
Candida albicans [31] = assay: Antifungal activity against Candida albicans ATCC 90028 assessed as planktonic growth inhibition at 39.77 uM after 48 hrs by M27-A3 protocol based method relative to control; assay type: functional; settings: ATCC 90028, 48 h, read-out: GI
Candida albicans [32] = assay: Antifungal activity against Candida albicans ATCC 90028 assessed as planktonic growth inhibition at 9.94 uM after 48 hrs by M27-A3 protocol based method relative to control; assay type: functional; settings: ATCC 90028, 48 h, read-out: GI
Candida albicans [33] = assay: Antifungal activity against Candida albicans ATCC 90028 assessed as planktonic growth inhibition at 0.08 uM after 48 hrs by M27-A3 protocol based method relative to control; assay type: functional; settings: ATCC 90028, 48 h, read-out: GI
Candida albicans [34] = assay: Antifungal activity against Candida albicans ATCC 90028 assessed as planktonic growth inhibition at 1.24 uM after 48 hrs by M27-A3 protocol based method relative to control; assay type: functional; settings: ATCC 90028, 48 h, read-out: GI
Candida albicans [35] = assay: Antifungal activity against Candida albicans ATCC 90028 assessed as planktonic growth inhibition at 0.31 uM after 48 hrs by M27-A3 protocol based method relative to control; assay type: functional; settings: ATCC 90028, 48 h, read-out: GI

| SMILES | inhibition of growth at 2.77 µM (Candida albicans [1]) [%] | inhibition of growth at 0.09 µM (Candida albicans [2]) [%] | inhibition of growth at 5.53 µM (Candida albicans [3]) [%] | inhibition of growth at 1.38 µM (Candida albicans [4]) [%] | inhibition of growth at 0.35 µM (Candida albicans [5]) [%] | inhibition of growth at 11.07 µM (Candida albicans [6]) [%] | inhibition of growth at 22.13 µM (Candida albicans [7]) [%] | inhibition of growth at 0.17 µM (Candida albicans [8]) [%] | inhibition of growth at 44.26 µM (Candida albicans [9]) [%] | inhibition of growth at 0.69 µM (Candida albicans [10]) [%] | log(activity) (Candida albicans [11]) | further results |
| --- | --- | --- | --- | --- | --- | --- | --- | --- | --- | --- | --- | --- |
| Cc1ccc(-c2nnn(CCCN3CCCC3c3cccc(C)c3)n2)cc1 (centres undefined) | 99.3 | 98.9 | 99.1 | 98.9 | 99 | 98.8 | 98.7 | 98.9 | 99 | 98.9 | -0.4 |  |
| Fc1ccc(C2CCCN2CCCn2nnc(-c3ccccc3)n2)cc1 (centres undefined) |  | 99.2 |  |  |  |  |  |  |  |  | -0.5 | inhibition (Candida albicans [12]): Active; inhibition of growth at 11.38 µM (Candida albicans [13]): 99.3%; inhibition of growth at 22.76 µM (Candida albicans [14]): 99.2%; inhibition of growth at 2.85 µM (Candida albicans [15]): 99.3%; inhibition of growth at 1.42 µM (Candida albicans [16]): 99.5%; inhibition of growth at 45.53 µM (Candida albicans [17]): 99.5%; Activity (Candida albicans [18]): Active; inhibition of growth at 0.71 µM (Candida albicans [19]): 99.3%; inhibition of growth at 0.36 µM (Candida albicans [20]): 99.2%; Activity (Candida albicans [21]): Active; inhibition of growth at 0.18 µM (Candida albicans [22]): 99.2%; inhibition of growth at 5.69 µM (Candida albicans [23]): 99.3% |
| Cc1ccc(-c2nnn(CCCN3CCCC3c3ccc(C)cc3)n2)cc1 (centres undefined) | 99 | 99 | 99.3 | 99 | 99.1 | 98.9 | 99.3 | 99.3 | 99.6 | 99.2 | -0.6 |  |
| C[C@@H]1[C@H](O)[C@@H](C)/C=C/C=C/C=C/C=C/C=C/C=C/C=C/[C@H](O[C@@H]2O[C@H](C)[C@@H](O)[C@H](N)[C@@H]2O)C[C@@H]2O[C@](O)(C[C@@H](O)C[C@@H](O)[C@H](O)CC[C@@H](O)C[C@@H](O)CC(=O)O[C@H]1C)C[C@H](O)[C@H]2C(=O)O [AMPHOTERICIN B] |  |  |  |  |  |  |  |  |  |  |  | IC50 (Candida albicans [24]): 100 µM; inhibition of growth at 0.27 µM (Candida albicans [25]): 100% |
| Clc1ccc(C2CCCN2CCCn2nnc(-c3ccccc3Cl)n2)cc1 (centres undefined) |  |  |  |  |  |  |  |  |  |  | -0.4 | inhibition of growth at 2.49 µM (Candida albicans [26]): 99.3%; inhibition of growth at 0.62 µM (Candida albicans [27]): 99.2%; inhibition of growth at 19.88 µM (Candida albicans [28]): 99.5%; inhibition of growth at 4.97 µM (Candida albicans [29]): 99.3%; inhibition of growth at 0.16 µM (Candida albicans [30]): 98.9%; inhibition of growth at 39.77 µM (Candida albicans [31]): 99.6%; inhibition of growth at 9.94 µM (Candida albicans [32]): 99.4%; inhibition of growth at 0.08 µM (Candida albicans [33]): 98.8%; inhibition of growth at 1.24 µM (Candida albicans [34]): 99.2%; inhibition of growth at 0.31 µM (Candida albicans [35]): 99% |
